Consider 13 compounds from patent EP3784230B1, “THE USE OF TERPENIC COUMARINE DERIVATIVE MOLECULES IN THE TREATMENT OF CANCER DISEASE” (T.C. Istanbul Medipol Universitesi, priority 2018, dated 2019).

The test system of one assay is COLO205. As to the kind of experiment: Cytotoxic activity (IC50) on cancer cell line COLO205. It is filed as cell-based. The note with it: Homo sapiens, COLO 205, read-out: Cytotoxic Activity ( IC 50 ). From the text: (§1) The inventors have determined the cytotoxic activity (IC 50 values) of the compounds according to the invention together with various agents present in the prior art on cell lines of different types of cancer.

Another assay deals with A498. As to the kind of experiment: Cytotoxic activity (IC50) on cancer cell line A498. The conditions noted are these: Homo sapiens, read-out: Cytotoxic Activity ( IC 50 ). The class given is cell-based.
Description: as §1

In the next assay the test system is TC32. Put plainly: Cytotoxic activity (IC50) on cancer cell line TC32. It is filed as cell-based. The conditions noted are these: Homo sapiens, TC-32, read-out: Cytotoxic Activity ( IC 50 ).
Description: as §1

For assay [1], the system named is UO31 cell line. Put plainly: Cytotoxic activity (IC50) on kidney cancer cell line UO31. The class given is cell-based. The note with it: Homo sapiens, UO-31; U031 (kidney cancer cell line); read-out: Cytotoxic Activity ( IC 50 ).
Description: as §1
The UO31 cell line is known to be the kidney cancer cell line. Taxol, vinblastine and vincristine anti-cancer agents are used against the kidney cancer in the state of the art.

The subject of the next assay is KM12. Put plainly: Cytotoxic activity (IC50) on cancer cell line KM12. The conditions noted are these: Homo sapiens, read-out: Cytotoxic Activity ( IC 50 ). It is filed as cell-based.
Description: as §1

For the next assay, the system named is A673. Put plainly: Cytotoxic activity (IC50) on cancer cell line A673. The class given is cell-based. The conditions noted are these: Homo sapiens, read-out: Cytotoxic Activity ( IC 50 ).
Description: as §1

Assay [2] has as its system UO31 cell line. The note with it: Ferguson R.E. et al., Int. J. Cancer 2005, 115, 155-163, read-out: IC 50 value; cited from earlier work.

Like-named read-outs stand apart in the source and are kept apart here. Where only a bound is given, the exact number is not on record here.

Take `C=C1CC[C@@H]2[C@](C)(COC(C)=O)[C@@H](O)CC[C@@]2(C)[C@@H]1COc1ccc2ccc(=O)oc2c1` [EXAMPLE MOLECULE III]: the IC50 with COLO205 is above 50 µM; with A498 it was above 50 µM; in the assay on TC32, above 50 µM; with UO31 cell line [1], 0.017 µM; in the assay with KM12, above 50 µM; in the assay on A673 it was above 50 µM.
With `C=C1CC[C@@H]2C(C)(C)[C@@H](O)CC[C@@]2(C)[C@@H]1COc1ccc2ccc(=O)oc2c1` [EXAMPLE MOLECULE II], the IC50 with COLO205 was above 50 µM; in the assay on A498, 20 µM; in the assay on TC32, above 50 µM; with UO31 cell line [1], 0.38 µM; in the assay with KM12, 9.1 µM; in the assay with A673, above 50 µM.
`C=C1CC[C@@H]2[C@](C)(COC(C)=O)[C@H](O)CC[C@@]2(C)[C@@H]1COc1ccc2ccc(=O)oc2c1` [EXAMPLE MOLECULE IV]: the IC50 was above 50 µM with COLO205; above 50 µM in the assay with A498; above 50 µM in the assay on TC32; 0.37 µM with UO31 cell line [1]; above 50 µM with KM12; above 50 µM in the assay on A673.
Regarding `C=C1CC[C@@H]2C(C)(C)[C@H](O)CC[C@@]2(C)[C@@H]1COc1ccc2ccc(=O)oc2c1` [EXAMPLE MOLECULE I], the IC50 was 19 µM in the assay with COLO205; 21 µM in the assay with A498; 45 µM in the assay with TC32; 0.75 µM in the assay with UO31 cell line [1]; 2.5 µM in the assay on KM12; above 50 µM with A673.
Regarding `C=C1CC[C@@H]2[C@](C)(C=O)[C@@H](O)CC[C@@]2(C)[C@@H]1COc1ccc2ccc(=O)oc2c1` [EXAMPLE MOLECULE V], the IC50 is above 50 µM in the assay with COLO205; above 50 µM in the assay with A498; above 50 µM in the assay on TC32; 0.024 µM with UO31 cell line [1]; above 50 µM in the assay with KM12; above 50 µM with A673.
For the compound `C=C1CC[C@@H]2C(C)(C)C(=O)CC[C@@]2(C)[C@@H]1COc1ccc2ccc(=O)oc2c1` [REFERENCE MOLECULE III], the IC50 in the assay with COLO205 was above 50 µM; in the assay with A498, above 50 µM; with TC32 it was above 50 µM; with UO31 cell line [1], 11 µM; in the assay with KM12, above 50 µM; with A673, above 50 µM.
Turning to `C/C(=C\COc1ccc2ccc(=O)oc2c1)CC/C=C(\C)CCC(O)C(C)(C)O` (stereo not drawn) [REFERENCE MOLECULE II], the IC50 was above 50 µM in the assay on COLO205; above 50 µM in the assay on A498; above 50 µM in the assay with TC32; 7.6 µM with UO31 cell line [1]; above 50 µM with KM12; above 50 µM with A673.
In the case of `C=C1CC[C@H]2[C@@](C)(CCC(=O)[C@@]2(C)COC(C)=O)[C@@H]1COc1ccc2ccc(=O)oc2c1` [REFERENCE MOLECULE IV], the IC50 in the assay with COLO205, in the assay on A498, in the assay on TC32, in the assay with UO31 cell line [1], with KM12 and with A673 was above 50 µM in each case.
For `CC(C)=CCC/C(C)=C/CC/C(C)=C/COc1ccc2ccc(=O)oc2c1` [REFERENCE MOLECULE I], the IC50 in the assay on COLO205 is above 50 µM; in the assay on A498, above 50 µM; with TC32, above 50 µM; in the assay on UO31 cell line [1] it was 1.8 µM; in the assay with KM12, above 50 µM; with A673, above 50 µM.
In the case of `C=C1CC[C@@H]2[C@](C)(CO)[C@H](O)CC[C@@]2(C)[C@@H]1COc1ccc2ccc(=O)oc2c1` [REFERENCE MOLECULE V], the IC50 in the assay on COLO205, in the assay with A498, in the assay on TC32, with UO31 cell line [1], with KM12 and in the assay on A673 was above 50 µM each time.
Consider `CC(=O)O[C@H]1C(=O)[C@@]2(C)[C@H]([C@H](OC(=O)c3ccccc3)[C@]3(O)C[C@H](OC(=O)[C@H](O)[C@@H](NC(=O)c4ccccc4)c4ccccc4)C(C)=C1C3(C)C)[C@]1(OC(C)=O)CO[C@@H]1C[C@@H]2O` [taxol], for which the IC50 in the assay on UO31 cell line [2] was above 50 µM.
In the case of `CC[C@]1(O)C[C@@H]2CN(CCc3c([nH]c4ccccc34)[C@@](C(=O)OC)(c3cc4c(cc3OC)N(C)[C@H]3[C@@](O)(C(=O)OC)[C@H](OC(C)=O)[C@]5(CC)C=CCN6CC[C@]43[C@@H]65)C2)C1` [vinblastine], the IC50 with UO31 cell line [2] is above 100 µM.
Regarding `CC[C@]1(O)C[C@H]2CN(CCc3c([nH]c4ccccc34)[C@@](C(=O)OC)(c3cc4c(cc3OC)N(C=O)[C@H]3[C@@](O)(C(=O)OC)[C@H](OC(C)=O)[C@]5(CC)C=CCN6CC[C@]43[C@@H]65)C2)C1` [vincristine], in the assay with UO31 cell line [2], the IC50 is above 100 µM.
